Patent US20170197935A1, “INHIBITORS OF DNA GYRASE FOR THE TREATMENT OF BACTERIAL INFECTIONS” (Vitas Pharma Research Private Limited, priority 2012, published 2017)
In brackets after ≈: the same amount, converted by molar mass. Where two headings read alike, the source gives them in different places.

Experiments:
E. coli (ATCC 25922) = experiment: MIC by microbroth dilution, E. coli ATCC 25922; assay type: cell-based; conditions: Escherichia coli
Description: (§1) Shown below are the microbiological activities of representative compounds of Formula I of the invention. The compounds were tested by the microbroth dilution method (National committee for Clinical Laboratory Standards, 2011, M07-08) and the Minimum Inhibitory Concentration (MIC) was determined.
(§2) Analysis of microbiological activity of compounds shown below are the microbiological activities of representative compounds of Formula II of the invention. The compounds were tested by the microbroth dilution method as per the reference in Example 1.

E. faecalis ATCC 51299 = experiment: MIC by microbroth dilution, E. faecalis ATCC 51299; assay type: cell-based; conditions: Enterococcus faecalis, ATCC51299, Formula II compounds, read-out: Minimum Inhibitory Concentration (MIC) E. faecalis ATCC 51299
Description: as §1, §2

[1] = target: T1, ciprofloxacin resistant recombinant Gyrase protein (with mutation S83L) (Escherichia coli, UniProt P0AES4+P0AES6, S83L); experiment: Gyrase supercoiling assay with ciprofloxacin resistant Gyrase (S83L); assay type: biochemical; conditions: read-out: Target specificity: % inhibition of supercoiling activity
T1 construct: purchased Inspiralis
Description: The enzyme is incubated with the substrate (relaxed DNA) in the presence and absence of compounds for 1 hour at 37° C. and the DNA is run on a gel at low voltage for several hours. The amount of supercoiled DNA is quantified using DNA imaging and quantification software (Image Lab). The activity of the enzyme is proportional to the amount of supercoiled form detected.

[2] = system: Methicillin resistant Staphylococcus aureus (ATCC 33591); experiment: MIC by microbroth dilution, MRSA ATCC 33591; assay type: cell-based
Description: as §1, §2

Pseudomonas ATCC 27853 = experiment: MIC by microbroth dilution, Pseudomonas ATCC 27853; assay type: cell-based; conditions: ATCC27853, Formula II compounds, read-out: Minimum Inhibitory Concentration (MIC) Pseudomonas ATCC 27853
Description: as §1, §2

Acinetobacter BAA747 = experiment: MIC by microbroth dilution, Acinetobacter BAA747; assay type: cell-based; conditions: Formula II compounds, read-out: Minimum Inhibitory Concentration (MIC) Acinetobacter BAA747
Description: as §1, §2

hERG = hERG (Homo sapiens, UniProt Q12809); experiment: biochemical
Description: To test the ability of the VT-03 compounds to bind the hERG channel, membranes expressing the hERG channel were incubated with radiolabeled Astemizole and displacement of the labeled ligand in the presence of compounds was measured.
To test the ability of the VT-03 compounds (of Formula II) to bind the hERG channel, membranes expressing the hERG channel were incubated with radiolabeled Astemizole and displacement of the labeled ligand in the presence of compounds was measured.

[3] = system: Staphylococcus aureus (ATCC 29213); experiment: MIC by microbroth dilution, Staphylococcus aureus ATCC 29213; assay type: cell-based; conditions: ATCC29213
Description: (§3) Shown below are the microbiological activities of representative compounds of Formula I of the invention. The compounds were tested by the microbroth dilution method (National committee for Clinical Laboratory Standards, 2011, […]-08) and the Minimum Inhibitory Concentration (MIC) was determined.

[4] = system: Enterococcus faecalis (ATCC 29212); experiment: MIC by microbroth dilution, Enterococcus faecalis ATCC 29212; assay type: cell-based; conditions: ATCC29212
Description: as §3

[5] = system: Moraxella catarrhalis (ATCC 8176); experiment: MIC by microbroth dilution, Moraxella catarrhalis ATCC 8176; assay type: cell-based; conditions: ATCC8176
Description: as §3

[6] = system: Streptococcus pneumoniae (ATCC 6301); experiment: MIC by microbroth dilution, Streptococcus pneumoniae ATCC 6301; assay type: cell-based; conditions: ATCC6301
Description: as §3

[7] = system: K. pneumoniae (ATCC 700603); experiment: MIC by microbroth dilution, K. pneumoniae ATCC 700603; assay type: cell-based; conditions: Klebsiella pneumoniae, ATCC700603, Formula I compounds
Description: as §1, §2

[8] = Single dose pharmacokinetics in male Swiss albino mice; assay type: in vivo; conditions: mouse, in vivo; for bioavailability: oral 10 mg/kg vs i.v. 5 mg/kg
Description: (§4) Compounds were dosed to male Swiss albino mice to determine the pharmacokinetic profiles.
as §4

[9] = ATCC25922, Formula II compounds, read-out: Minimum Inhibitory Concentration (MIC) E. coli ATCC 25922
[10] = Formula II compounds, read-out: Minimum Inhibitory Concentration (MIC) MRSA ATCC 33591
[11] = ATCC25922, Formula I compounds, read-out: MIC E. coli (ATCC 25922)
[12] = ATCC33591, Formula I compounds, read-out: MIC Methicillin resistant Staphylococcus aureus (ATCC 33591)

SMILES | MIC (E. coli (ATCC 25922); [9]) [µg/mL] | MIC (E. faecalis ATCC 51299) [µg/mL] | MIC [2, 10] [µg/mL] | MIC (Pseudomonas ATCC 27853) [µg/mL] | MIC (Acinetobacter BAA747) [µg/mL] | inhibition at 0.1 µM [1] [%] | inhibition at 1 µM [1] [%] | also measured
Cc1ccc(CNC2CCN(CCn3c(=O)cnc4ccc(Br)cc43)CC2)cc1F [VT-03-00102] | 8 (≈ 16.9 µM) | 0.5 (≈ 1.06 µM) | ≤ 0.0075 |  |  | 96.5 | 95.3 | 
Cc1ccc(CNC2CCN(CCn3c(=O)cnc4ccc(OC(F)(F)F)cc43)CC2)cc1[N+](=O)[O-] [VT-03-00114] | 2 (≈ 3.96 µM) | 0.5 (≈ 0.989 µM) | 0.06 (≈ 0.119 µM) |  |  |  |  | 
Cc1ccc(CNC2CCN(CCn3c(=O)cnc4ccc(Cl)nc43)CC2)cc1F [VT-03-00111] | 1 (≈ 2.33 µM) | 0.5 (≈ 1.16 µM) | 0.125 (≈ 0.291 µM) |  |  | 90.4 | 87.6 | 
COc1ccc2ncc(=S)n(CCN3CCC(NCc4ccc(C)c(F)c4)CC3)c2c1 [VT-03-00126] | 2 (≈ 4.54 µM) |  | 0.5 (≈ 1.13 µM) | > 32 | 8 (≈ 18.2 µM) |  |  | 
Cc1ccc(CNC2CCN(CCN3C(=O)CNc4ccc(Cl)nc43)CC2)cc1F [VT-03-00107] | 1 (≈ 2.32 µM) | 0.5 (≈ 1.16 µM) | 0.06 (≈ 0.139 µM) |  |  |  |  | 
COc1ccc2ncc(=O)n(CCN3CC[C@H](NCc4ccc(C)c([N+](=O)[O-])c4)[C@H](F)C3)c2c1 [VT-03-00134] | 2 (≈ 4.26 µM) | 0.25 (≈ 0.532 µM) | 0.015 (≈ 0.0319 µM) | 32 (≈ 68.2 µM) | 0.5 (≈ 1.06 µM) |  |  | 
COc1ccc2ncc(C#N)c(CCN3CCC(NCc4csc([N+](=O)[O-])c4)CC3)c2c1 [VT-03-00053] |  |  |  |  |  |  |  | MIC (E. coli (ATCC 25922); [11]): 4 µg/mL (≈ 8.86 µM); IC50 (hERG): > 30 µM; MIC [3]: 0.25 µg/mL (≈ 0.554 µM); MIC [4]: 2 µg/mL (≈ 4.43 µM); MIC [2, 12]: 0.25 µg/mL (≈ 0.554 µM); MIC [5]: 0.5 µg/mL (≈ 1.11 µM); MIC [6]: 1 µg/mL (≈ 2.21 µM); MIC [7]: > 32 µg/mL
COc1ccc2ncc(C#N)c(CCN3CCC(NC(=O)c4ccc(Cl)c([N+](=O)[O-])c4)CC3)c2c1 [VT-03-00058] |  |  |  |  |  |  |  | MIC (E. coli (ATCC 25922); [11]): 1 µg/mL (≈ 2.02 µM); IC50 (hERG): > 30 µM; MIC [3]: 0.015 µg/mL (≈ 0.0304 µM); MIC [4]: 0.25 µg/mL (≈ 0.506 µM); MIC [2, 12]: 0.06 µg/mL (≈ 0.121 µM); MIC [5]: 0.5 µg/mL (≈ 1.01 µM); MIC [6]: 0.03 µg/mL (≈ 0.0607 µM); MIC [7]: 16 µg/mL (≈ 32.4 µM)
Cc1ccc(CNC2CCN(CCn3c(=O)cnc4ccc(F)cc43)CC2)cc1[N+](=O)[O-] [VT-03-00113] | 0.125 (≈ 0.284 µM) | 0.25 (≈ 0.569 µM) | 0.03 (≈ 0.0683 µM) | 8 (≈ 18.2 µM) | 0.25 (≈ 0.569 µM) | 90 | 94 | AUC(0-t) ([8]; iv, 5 mg/kg): 402 ng·h/mL; Cmax ([8]; iv, 5 mg/kg): 672 ng/mL; Tmax ([8]; iv, 5 mg/kg): 9.6 min; half-life ([8]; iv, 5 mg/kg): 22.2 min; bioavailability [8]: 1.16%; AUC(0-t) ([8]; oral, 10 mg/kg): 9.3 ng·h/mL; Cmax ([8]; oral, 10 mg/kg): 15.6 ng/mL; Tmax ([8]; oral, 10 mg/kg): 30 min
COc1ccc2ncc(=S)n(CCN3CCC(NCc4ccc(C)c([N+](=O)[O-])c4)CC3)c2c1 [VT-03-00127] | 1 (≈ 2.14 µM) | 1 (≈ 2.14 µM) | 0.125 (≈ 0.267 µM) | 8 (≈ 17.1 µM) | 1 (≈ 2.14 µM) | 39 | 72 | AUC(0-t) ([8]; iv, 5 mg/kg): 527 ng·h/mL; Cmax ([8]; iv, 5 mg/kg): 478 ng/mL; Tmax ([8]; iv, 5 mg/kg): 9.6 min; half-life ([8]; iv, 5 mg/kg): 120 min; bioavailability [8]: 18.8%; AUC(0-t) ([8]; oral, 10 mg/kg): 198 ng·h/mL; Cmax ([8]; oral, 10 mg/kg): 97 ng/mL; Tmax ([8]; oral, 10 mg/kg): 30 min; half-life ([8]; oral, 10 mg/kg): 173 min

Now from value to compound, other results behind:

MIC (E. coli (ATCC 25922); [9]) [µg/mL] | MIC (E. faecalis ATCC 51299) [µg/mL] | MIC [2, 10] [µg/mL] | MIC (Pseudomonas ATCC 27853) [µg/mL] | MIC (Acinetobacter BAA747) [µg/mL] | SMILES | inhibition at 0.1 µM [1] [%] | inhibition at 1 µM [1] [%] | also measured
0.25 to 1 (≈ 0.572 to 2.29 µM) | 0.25 (≈ 0.572 µM) | 0.25 (≈ 0.572 µM) | 16 (≈ 36.6 µM) | 0.25 (≈ 0.572 µM) | Cc1ccc(CNC2CCN(CCn3c(=O)cnc4ccc(Cl)nc43)CC2)cc1C#N [VT-03-00131] |  |  | 
8 (≈ 17.9 µM) | 16 (≈ 35.8 µM) | 4 (≈ 8.94 µM) | > 32 | 8 (≈ 17.9 µM) | Cc1ccc(CNC2CCN(CCn3c(=O)cnc4ncc(C#N)cc43)CC2)cc1[N+](=O)[O-] [VT-03-00119] |  |  | 
